Data set [1] can be described thus: In vivo non-clinical PK / high dose PK and toxicology exposure. Details: species or system cynomolgus monkey. The note with it: monkey. As for the experimental part: (§1) The in vivo non-clinical PK profile of I-57 was investigated in mouse, rat, dog and cynomolgus monkey using I-57 free base. […] After p.o. administration, the absorption of I-57 was rapid with peak blood concentration (Tmax) occurring between 1 and 4 hours. […] In high dose PK and toxicology studies with I-57 the exposures in mouse, rat and monkey increased with dose.

In the next data set the test system is anti-KLH IG. The experiment in a line: Serum anti-KLH IG levels in immunized cynomolgus monkeys. In kind it is in vivo, cynomolgus monkey. The conditions noted are these: daily oral 0.1 and 3 mg/kg. As for the experimental part: (§2) The PK/PD relationship of I-57 was further examined in cynomolgus monkeys after repeated daily oral doses of 0.1 and 3 mg/kg. In this study, a cohort of animals were initially immunized with an antigen-adjuvant mixture (KLH/Squalene). The experiment was designed to assess the effect of I-57 exposure, and the resulting IKZF2 degradation, on immune response during immunization to test the hypothesis that IKZF2 degradation would result in increased proliferation of stimulated T-cells. In the experiment, daily I-57 oral treatment was initiated 5 days after immunization. An immunization booster dose was administered on day 15. I-57 plasma concentration and IKZF2 expression (as determined by flow cytometry) in FOXP3+ T cells from PBMCs were determined (FIG. 9A and FIG. 9B).
(§3) In order to measure the impact of I-57 treatment on the immune response following immunization, serum anti-KLH IG levels were measured longitudinally, and levels of T cell activation were measured in PBMCs by flow cytometry. […] In contrast, the proportion of proliferative peripheral T cells (denoted by Ki67 staining) was increased in the highest dose group (3 mg/kg) in the recall response phase, compared to immunization alone.

Data set [2] has as its target T1, IKZF2 expression in human CD4+FOXP3+ regulatory T cells (Homo sapiens, UniProt Q96SW2+Q9UKS7).
T1 construct: endogenous in cells; host or cells: adoptively transferred human PBMCs (Tregs, tumor-infiltrating lymphocytes) in NSG mice
In words: PD in MDA-MB231 xenograft hPBMC AdT model: IKZF2 in Tregs by flow cytometry (FIG. 7). In kind it is in vivo. As for the experimental part: FIG. 6 is a pictorial representation of the multi-dose PK/PD study design in the human PBMC adoptive transfer mouse model harboring MDA-MB231 xenografts. Fourteen consecutive daily doses of Compound I-57 was administered at 0.3 mg/kg, 1 mg/kg, 3 mg/kg or 30 mg/kg.
FIG. 7 is a graph showing the change in the IKZF2 expression in human CD4+FOXP3+ regulatory T cells isolated from MDA-MB231 tumor xenografts (Tumor) or blood (Periphery) following 14 daily oral doses of 0.3, 1, 3 and 30 mg/kg Compound I-57 administered to the hPBMC AdT model.
The PK/PD relationship of I-57 was examined in the hPBMC AdT model system. Human PBMCs were adoptively transferred into female NSG mice harboring established MDA-MB231 xenografts (FIG. 6). This model was selected based on the observation that IKZF2 positive Tregs (CD4+FOXP3+) were readily identifiable in peripheral blood and infiltrated in the tumor xenografts.
The impact of I-57 on IKZF2 protein expression in human Tregs in the periphery and infiltrated in MDA-MB231 xenografts was assessed via flow cytometry at multiple time points after the last I-57 dose. […] Maximum effects were generally observed 4-16 h post dose. At a given dose level, the magnitude and duration of IKZF2 reduction in Tregs was generally consistent across tissues (tumor, spleen and blood).
Based on the data from this hPBMC AdT mouse model, unbound I-57 (73% percent plasma binding in the mouse) exposures (AUCinf) of 7, 30, 157 and 3474 ng*h/mL are required to achieve the reduction of IKZF2 positivity (via flow cytometry) in tumor Tregs by 31, 43, 56, and 75%, respectively. The relationship between the magnitude and duration of I-57-mediated IKZF2 degradation and subsequent modulation of therapeutically relevant downstream biology is not yet well understood.
In general terms: A flow cytometer gives signals particle by particle.

Data set [3] is described as follows: Toxicology in rats (5-day and 4-week GLP studies). It is filed as in vivo. From the text:
The non-clinical safety profile of I-57 was established in vitro, and in vivo in rats and cynomolgus monkeys in studies up to 4-weeks duration. Based on the outcome of these studies, QTc interval prolongation was identified as the principal safety signal for I-57. There were other toxicities such as diarrhea and vomiting in monkeys, and mortality, clinical signs and target organ toxicities in rats; however, these occurred at exposures far above those expected to result in clinical activity.
Clinical signs, decreases in body weight and food consumption, and clinical pathology changes reflecting inflammation, renal and liver injury, and stress were generally evident in the pre-terminal animals. Kidney toxicity was evident in rats at doses >100 mg/kg/day and was characterized by increased weight, hematuria, proteinuria, with or without increased blood urea and creatinine, degeneration, regeneration and inflammation at 300 mg/kg/day.
Similar exposure in the clinic would require doses in human of approximately 2,000 and 5,000 mg QD based on the human PK model. Activity is anticipated well below this dose level.

For another data set, the system named is peripheral T cells. In words: Proliferation of peripheral T cells (Ki67) in KLH/Squalene immunized cynomolgus monkeys (FIG. 9B). In kind it is in vivo, cynomolgus monkey. The note with it: 3 mg/kg group. The protocol: FIG. 9B. is a graph showing proliferation of peripheral T cells (Mean+/−SEM, % of predose) upon treatment with 0.1 and 3 mg/kg of Compound I-57 in cynomolgus monkeys.
as §2, §3

Data set [4] is described as follows: In vivo non-clinical PK / high dose PK and toxicology exposure. The note with it: rat; between 3 mg/kg and 300 mg/kg. As for the experimental part:
as §1

A short description of data set [5]: Preclinical safety observations. It is filed as in vivo. From the text:
The inclusion/exclusion criteria, dose modification guidelines and safety assessments in this FIH trial account for both the disease indications and preclinical safety profile of I-57 and PDR001. Of note are the provisions put in place for the risk of autoimmune events for both PDR001 and potentially I-57.

Another data set deals with T2, IKZF2 (Oryctolagus cuniculus, UniProt A0A5F9CPW0).
T2 construct: endogenous in cells; host or cells: primary rabbit PBMCs
T2 sequence (A0A5F9CPW0 1-526): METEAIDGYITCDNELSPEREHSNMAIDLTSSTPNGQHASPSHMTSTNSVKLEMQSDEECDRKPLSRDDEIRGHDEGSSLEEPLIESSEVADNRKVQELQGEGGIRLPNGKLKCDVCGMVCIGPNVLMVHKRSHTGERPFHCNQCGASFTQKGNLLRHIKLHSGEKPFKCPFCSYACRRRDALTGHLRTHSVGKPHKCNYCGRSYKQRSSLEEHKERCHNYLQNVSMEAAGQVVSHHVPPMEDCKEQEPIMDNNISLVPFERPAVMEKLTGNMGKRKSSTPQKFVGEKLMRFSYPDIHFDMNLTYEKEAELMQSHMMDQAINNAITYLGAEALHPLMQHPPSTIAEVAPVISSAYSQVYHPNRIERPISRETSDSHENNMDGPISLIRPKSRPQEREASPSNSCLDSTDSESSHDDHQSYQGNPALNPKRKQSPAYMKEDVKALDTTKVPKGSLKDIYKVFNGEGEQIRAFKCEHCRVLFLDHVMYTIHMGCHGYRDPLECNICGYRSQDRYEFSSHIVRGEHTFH
In words: IKZF2 degradation in primary PBMCs in vitro (FIG. 3). In kind it is cell-based. The conditions noted are these: primary rabbit PBMCs; concentrations up to 10 μM. The protocol:
FIG. 3. is a bar graph showing the degradation of IKZF2 in primary PBMCs obtained from rabbit, dog, pig, cynomolgus monkey and human, and in primary splenocytes of mouse and rat and treated with Compound I-57.
I-57 mediated degradation of IKZF2 was assessed in primary PBMCs obtained from rabbit, dog, pig, cynomolgus monkey, and human, and in primary splenocytes of mouse and rat. […] Species-specificity due to species specific alteration CRBN primary structure have previously been described with other compounds known to interact with the CRBN ubiquitin ligase complex to elicit protein specific degradation (Krönke et al, 2015).

SMILES strings stand for the structures.

T1 sequence (Q9UKS7 whole entry): as the sequence (A0A5F9CPW0 1-526) above, with D68E, V234M, M266I, S373A, N423H, V449A counted along it
T1 sequence (Q96SW2 whole entry): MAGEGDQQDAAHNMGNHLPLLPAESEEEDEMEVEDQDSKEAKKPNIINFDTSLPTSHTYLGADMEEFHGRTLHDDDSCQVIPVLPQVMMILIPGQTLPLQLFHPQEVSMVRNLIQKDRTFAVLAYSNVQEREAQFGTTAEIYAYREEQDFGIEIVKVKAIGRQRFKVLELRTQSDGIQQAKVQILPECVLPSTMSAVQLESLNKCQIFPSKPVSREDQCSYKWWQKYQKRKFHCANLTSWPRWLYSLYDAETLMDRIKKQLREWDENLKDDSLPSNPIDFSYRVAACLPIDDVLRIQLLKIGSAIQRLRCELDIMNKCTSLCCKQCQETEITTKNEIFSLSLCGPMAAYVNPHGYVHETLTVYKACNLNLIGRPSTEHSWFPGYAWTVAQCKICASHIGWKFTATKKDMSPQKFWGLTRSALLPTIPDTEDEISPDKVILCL
T1 sequence (Q16531 whole entry partner): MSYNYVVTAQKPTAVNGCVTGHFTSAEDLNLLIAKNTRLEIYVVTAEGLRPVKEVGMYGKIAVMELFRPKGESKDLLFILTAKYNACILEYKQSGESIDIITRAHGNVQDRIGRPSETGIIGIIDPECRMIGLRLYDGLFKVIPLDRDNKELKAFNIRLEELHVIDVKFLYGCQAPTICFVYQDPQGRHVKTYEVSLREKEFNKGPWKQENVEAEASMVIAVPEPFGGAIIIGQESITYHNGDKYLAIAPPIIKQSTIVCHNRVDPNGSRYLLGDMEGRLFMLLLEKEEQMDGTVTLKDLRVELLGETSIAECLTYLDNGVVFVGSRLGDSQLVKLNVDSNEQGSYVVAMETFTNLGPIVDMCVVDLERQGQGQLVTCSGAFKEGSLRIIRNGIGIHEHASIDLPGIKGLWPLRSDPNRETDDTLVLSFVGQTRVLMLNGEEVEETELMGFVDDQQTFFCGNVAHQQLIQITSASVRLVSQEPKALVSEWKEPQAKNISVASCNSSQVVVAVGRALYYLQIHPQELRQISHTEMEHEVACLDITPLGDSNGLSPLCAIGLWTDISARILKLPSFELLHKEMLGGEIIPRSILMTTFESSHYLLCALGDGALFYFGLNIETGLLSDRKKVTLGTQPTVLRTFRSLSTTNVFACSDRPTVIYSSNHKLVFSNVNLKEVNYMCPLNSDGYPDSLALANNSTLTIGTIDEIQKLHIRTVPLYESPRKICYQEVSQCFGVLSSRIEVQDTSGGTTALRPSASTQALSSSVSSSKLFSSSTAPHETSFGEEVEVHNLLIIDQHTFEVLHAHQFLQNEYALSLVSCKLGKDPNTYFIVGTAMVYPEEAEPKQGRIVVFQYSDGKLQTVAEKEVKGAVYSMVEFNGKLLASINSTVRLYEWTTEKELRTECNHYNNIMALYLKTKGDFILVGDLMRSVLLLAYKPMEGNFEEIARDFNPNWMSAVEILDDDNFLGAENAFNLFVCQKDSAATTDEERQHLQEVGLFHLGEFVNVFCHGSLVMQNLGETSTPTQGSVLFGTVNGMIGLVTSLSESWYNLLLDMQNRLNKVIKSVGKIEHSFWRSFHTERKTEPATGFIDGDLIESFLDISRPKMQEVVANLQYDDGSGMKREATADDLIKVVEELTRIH

On to `O=C1CCC(N2Cc3cc(C4CCN(Cc5ccccc5)CC4)ccc3C2=O)C(=O)N1` (stereo not drawn) [Compound I-57, 3-(5-(1-benzylpiperidin-4-yl)-1-oxoisoindolin-2-yl)piperidine-2,6-dione], for which the “increase in AUC with dose” value was “less than dose proportional” in data set [1] (above 100 mg/kg); “slightly over-proportional” in data set [1] (between 10 mg/kg and 100 mg/kg); “roughly dose proportional” in data set [4]. The “anti-IgG titers elicited by the immunization” value in the data set on anti-KLH IG is on record as “not further enhanced”. The “time of maximum effects” value in data set [2] (post dose (after last dose)) lay in the range of 4 to 16 h. In addition, the “IKZF2 degradation (reduction of percentage of IKZF2 positive Tregs)” value in data set [2] (tumor and peripheral blood, 14 daily oral doses of 0.3, 1, 3 and 30 mg/kg) was “robust dose and exposure-dependent IKZF2 degradation”. Further, the “reduction of IKZF2 positivity in tumor Tregs (flow cytometry)” value in data set [2] (unbound AUCinf 7 ng*h/mL) was found to be 31%; in data set [2] (unbound AUCinf 30 ng*h/mL), 43%; in data set [2] (unbound AUCinf 157 ng*h/mL) it was 56%; in data set [2] (unbound AUCinf 3474 ng*h/mL), 75%. The “human dose required for similar exposure (AUC)” value in data set [3] (exposure associated with mortality and toxicity in rats at 300 mg/kg, human PK model) is ~5,000 mg QD. Besides, the urinary bladder findings entry in data set [3] (rat, in vivo, 300 mg/kg/day) is “Degenerative changes”. Besides, in data set [3] (rats), the “doses at which kidney toxicity was evident” value was greater than 100 mg/kg/day. In data set [3] (rats, females), the “doses at which mortality occurred” value is greater than 300 mg/kg/day. Moreover, the “levels of Ki67 until the end of the study” value with peripheral T cells is reported as “remained elevated”. Further, the “preclinical observation (ECG)” value in data set [5] is “QTc prolongation”. Besides, the “preclinical observation (urine)” value in data set [5] is “hematuria and proteinuria”. The “degradation of IKZF2” value on IKZF2 is “Degradation was observed”.

For the origin of these results see patent publication US20240245670A1, “DOSING REGIMEN AND PHARMACEUTICAL COMBINATION COMPRISING 3-(1-OXOISOINDOLIN-2-YL)PIPERIDINE-2,6-DIONE DERIVATIVES” (Novartis AG, priority 2018, published 2024).
